The data set in a line: Human HepG2 cell viability assay in 384 well format. The format is toxicity, cell-based. On the set-up: dose 125 nL, time 70.5 hour; concentration not given beside the values. To be noted: HepG2 cells, read-out: Inhibition.
For the compound `N#Cc1ccc(SCCC(=O)N(Cc2cccnc2)C2CC2)cc1`, the cytotoxicity at 70.5 h is -7.83%. To `N#Cc1ccc(OC2CCN(C(=O)COCC3CCCO3)CC2)cc1` (centres undefined) belongs -9.76%; to `CCc1noc(CS(=O)(=O)c2cccc(OC)c2)n1`, 4.71%; to `CS(=O)(=O)CCC(=O)NC(Cc1ccccc1)C1CC1` (centres undefined), -4.37%. Take `CCCn1nccc1NC(=O)c1ccc(Cl)c(N2CCNC2=O)c1`: the cytotoxicity at 70.5 h is -2.55%. The figure for `CCn1nc(C)cc1C(=O)N1CCOc2cc(C)ccc21` is -7.11%. On to `Cc1n[nH]c(C2CN(Cc3csc(C4CCCC4)n3)CCO2)n1` (centres undefined), for which the cytotoxicity at 70.5 h was -6.59%. The figure for `COc1cc(NC2CCCNC2)cc(OC)c1` (centres undefined) is 17.7%. To `COc1ccc(C(C#N)NC(=O)CC2=CCCCC2)c(OC)c1` (centres undefined) belongs -3.57%; to `CN(C)c1ccc(NC(=O)N2CCCCC2c2ncc[nH]2)cn1` (centres undefined), 14.8%. To `Cc1cc(C)c(CNc2nc3ccccc3cc2CO)c(=O)[nH]1` belongs 6.72%; to `CS(=O)(=O)NCC(=O)NC(Cc1ccccc1)C1CCCC1` (centres undefined), -4.4%; to `CS(=O)(=O)c1nccn1CCOc1ccccc1F`, 13.8%. In the case of `COc1cccc(C2=CCN(CCN3CCOC3=O)CC2)c1`, the cytotoxicity at 70.5 h turned out to be 11.1%. Turning to `CS(=O)(=O)N1CCO[C@@H]2CN(C(=O)N3CCCC3)CC[C@@H]2C1`, the cytotoxicity at 70.5 h was -8.13%. `CN(C)C(=O)CN1CCO[C@H]2CN(Cc3ccoc3)C[C@H]21`: the cytotoxicity at 70.5 h was -4.25%. The figure for `CC(C)NC(=O)C1CN(C(=O)N(C)C)CC12CCOCC2` (centres undefined) is -3.34%; for `Cc1ccc(CNCC2Cn3nncc3CO2)o1` (centres undefined) it is -3.52%; for `Cc1nnc([C@@]23CCO[C@@H]2CCN(S(=O)(=O)c2cccnc2)C3)o1` it is -5.15%. With `COCC1CC2(CCN(Cc3ccoc3)CC2)CN1Cc1ccccn1` (centres undefined), the cytotoxicity at 70.5 h stood at 16.1%. Take `c1coc(CNCC2Cn3nncc3CO2)c1` (centres undefined): the cytotoxicity at 70.5 h is -8.73%.

Consider `Cc1ccc(CN2C[C@H](NC(=O)c3nccn3C)[C@H]3OCCC[C@H]32)o1`, for which the cytotoxicity at 70.5 h is 18.3%. `COCC1c2nnn(C)c2CCN1C(=O)COc1ccccc1OC` (centres undefined): the cytotoxicity at 70.5 h was 1.52%. On to `CN(C)C(=O)NCC1CC2(CO1)CN(c1nncs1)C2` (centres undefined), for which the cytotoxicity at 70.5 h came out at 1.71%. The figure for `CN1CCC2(C=C(C(=O)N(C)C)c3ccccc32)CC1` is 2.91%; for `COCC1c2nnn(C)c2CCN1C(=O)c1ccc(OC)c(F)c1` (centres undefined) it is -7.3%; for `c1ccc2c(c1)C(NC1CCCC1)CC21CCNCC1` (centres undefined) it is -1.32%.

Consider `Cc1ccc2c(c1)C1(CCNCC1)CC2NCCO` (centres undefined), for which the cytotoxicity at 70.5 h is -1.58%. To `CCc1ncnc2c1CCN(CC(=O)N(C)C)CC2` belongs -1.77%; to `Cc1nnc([C@]23COC[C@H]2CN(S(=O)(=O)c2cccnc2)C3)o1`, -5.13%. Consider `Cn1ccnc1C(=O)N[C@@H]1CN(CC2CCOCC2)[C@@H]2CCCO[C@@H]21`, for which the cytotoxicity at 70.5 h is -2.65%. To `COCCN1C(=O)CC(c2cccnc2)C12CCN(C(=O)C1CC1)CC2` (centres undefined) belongs -0.348%; to `O=C(c1ccccc1F)N1CCC2(CC1)CC(N1CCCC1)CO2` (centres undefined), -7.88%; to `CC(C)CN1CCC2(C=C(C(=O)N(C)C)c3ccccc32)CC1`, -2.19%. For `Cn1cc(CN2C[C@H]3CCC[C@@]3(COCC3CC3)C2)cn1`, the cytotoxicity at 70.5 h is -1.1%. With `Cn1ccnc1C(=O)N[C@@H]1CN(Cc2ccoc2)[C@@H]2CCCO[C@@H]21`, the cytotoxicity at 70.5 h is -2.77%.

On to `Cc1csc([C@H]2C[C@H]3CN(Cc4cc(C)on4)CC[C@@H]3O2)n1`, for which the cytotoxicity at 70.5 h is -7.64%.

For `COCC1CC2(CCN(CC3CC3)CC2)CN1Cc1ccccn1` (centres undefined), the cytotoxicity at 70.5 h was -2.19%. As for `c1cncc(CN2CCN3C[C@H](Oc4cncnc4)C[C@H]3C2)c1`, the cytotoxicity at 70.5 h was -5.49%.

These data come from ChEMBL document CHEMBL3507680, “University of Dundee, Gates Library screen for HepG2 cell viability”.
